Among the data in patent publication US6372740B1, “2-aryl-8-oxodihydropurine derivative, process for the producing the same, medicinal compositions containing the same, and intermediates thereof” (Dainippon Pharmaceutical Co., Ltd., priority 1997, dated 2002) are melting point, IC50 and minimal effective dose values, retold here.

pIC50: −log10 of the molar value.

Data set [1] has as its target T1, BZω3 receptor (Rattus norvegicus, UniProt P16257).
T1 construct: from tissue; host or cells: rat (Wistar) kidney membrane fraction
Description: BZω3 (peripheral) benzodiazepine receptor binding assay, [3H] 4'-chlorodiazepam (Ro 5-4864). As to conditions: rat kidney membrane, [3H] Ro 5-4864 0.5 nM, 150 minutes at 0° C.; read-out: ω3 IC50. As to the method: Experiment 1: Central (ω1,ω2) and Peripheral (ω3) Benzodiazepine Receptor Binding Assays
BZω1 and BZω2 receptor binding assays and the preparation of receptor membrane fractions therefor were carried out according to the method of Stephens, D. N. et al. [cf., J. Pharmacol. Exp. Ther., 253, 334-343 (1990)], and BZω3 receptor binding assay and the preparation of receptor membrane fraction therefor were done according to the method of Schoemaker, H. [cf, J. Pharmacol. Exp. Ther., 225, 61-69 (1983)] each with slight modification.
Receptor membrane fractions for ω1, ω2 and ω3 were prepared from the cerebellum (ω1), spinal cord (ω2) or kidney (ω3) in 7-8 week old male rats of Wistar strain, respectively, by the procedure described below.
After the cerebellum or spinal cord was homogenized with 20 volumes of ice-cold 50 mM Tris-citrate buffer (pH 7.1), the homogenate was centrifuged for 15 minutes at 40,000 g. The pellet obtained was washed 4 times by the same procedure, and frozen and stored for 24 hours at −60° C. The resulting pellet, after being thawed, washed with the buffer and centrifuged, was suspended in the buffer I for the binding assay (50 mM Tris-HCl buffer containing 120 mM NaCl, 5 mM KCl, 2 mM CaCl2 and 1 mM MgCl2; pH 7.4) and the suspension thus obtained (containing 1 g wet tissue/40 ml) was used for the BZω1 and BZω2receptor binding assays. On the other hand, the kidney was homogenized with 20 volumes of the ice-cold buffer II for the binding assay (50 mM Na-K phosphate buffer containing 100 mM NaCl; pH 7.4), and the mixture was filtered through 4 sheets of gauze, and centrifuged for 20 minutes at 40,000 g. The pellet obtained was suspended in the buffer II and the suspension (containing 1 g wet tissue/100 ml) was used for the binding assay as BZω3 receptor membrane source.
[^3H] Flumazenil (Ro 15-1788) (final concentration: 0.3 nM for ω1, and 1 nM for ω2) and flunitrazepam (final concentration: 10 μM) were used for the BZω1 or BZω2 receptor binding assays as the isotope-labeled and unlabeled ligands, respectively. For the BZω3 receptor binding assay, [^3H] 4′-chlorodiazepam (7-chloro-1,3-dihydro-1-methyl-5-(4-chlorophenyl)-2H-1,4-diazepin-2-one) (Ro 5-4864) (final concentration: 0.5 nM) and diazepam (final concentration: 100 μM) were used as the isotope-labeled and unlabeled ligands, respectively. Incubation was performed for 30 minutes at 37° C. in the BZω1 or BZω2 receptor binding assays, and for 150 minutes at 0° C. in the BZω3 receptor binding assay. The BZω1 or BZω2 receptor binding assays were carried out in the presence of bicuculline (final concentration: 100 μM).
The binding assay was performed by the following procedure. After adding each test compound at certain known concentrations, a [^3H] ligand, and the buffer I or II to each test tube, each assay was started by addition of membrane preparation (total volume of 1 ml). After incubation, the assay was terminated by filtration with suction through a Whatman GF/B glass fiber filter using a cell harvester (Brandel, USA). The filters were rapidly washed 3 times with 5 ml of ice-cold 50 mM Tris-HCl buffer (pH 7.7) for ω1 and ω2, or the buffer II for ω3, and transferred to scintillation vials containing 10 ml liquid scintillation cocktail (ACS-II, Amersham, USA). After being allowed to stand for a specific period, retained radioactivity was counted by a liquid scintillation spectrometer. Specific binding of [^3H] ligands was calculated as the difference between amounts of radioactivity bound in the presence and absence of excess unlabeled ligands. The concentration of the test compounds causing 50% inhibition of specific binding of the [3H] ligand (IC50) was determined by probit analysis.

Data set [2] relates to mice (stay in light compartment). Description: Light and dark box test (anti-anxiety effect). The conditions noted are these: Mus musculus, po, 0.5 h, male Std-ddY mice, 30 minutes before test, Dunnett test 5%, read-out: Anti-anxiety effect MED (minimum effective dose). The format is in vivo. The source says:
Experiment 2: Light and Dark Box Test (Anti-anxiety Effect)
Anti-anxiety effect of test compounds was examined in a box with light and dark compartments according to the method of Crawley, J. and Goodwin, F. K. [cf., Pharmacol. Biochem. Behav., 13, 167-170 (1980)] with slight modification.
Light and dark box test is a useful, simple and handy method for behaviorally and pharmacologically examining anti-anxiety effect of the drugs, by utilizing the habit of rodents such as mice and rats, etc. which prefer to stay in a dark place, and regarding as positive drug effect the increase of the relative stay of the animals in the light compartment which is an uncomfortable place for the animals. A number of drugs such as cholecystokinin B type receptor antagonists and benzodiazepine drugs, show positive effect in this test.
Light and dark box test was carried out using the test box device (35×17×15 cm) which comprises: a light compartment (20×17×15 cm) consisting of transparent acrylic plates and highly illuminated by an incandescent lamp (1,700 lux); a dark compartment (15×17×15 cm) being made of black acrylic plates connected to the light compartment; and at the boundary of compartments, an opening (4.4×5.0 cm) in which mice can go through freely between two compartments.
Male mice of Std-ddY strain weighing 25-30 g were used in a group of 10. Each trial was started by placing a mouse in the center of the light compartment 30 minutes after oral administration of a test compound, and the time spent by the mouse in the light compartment during a 5 minute observation period was measured, and the rate of the stay of mice in the light compartment to the whole time spent in the experiment was calculated (rate of light compartment stay, %).
The anti-anxiety effect of the test compound was represented by the minimum effective dose (MED) at which the increasing rate of the relative stay in the light compartment was regarded as statistically significant (Dunnett test, significance level: 5%). 4.

On to `CN(C(=O)Cn1c(=O)n(C)c2nc(-c3ccccc3)ncc21)c1ccccc1` [Example 2, 8,9-dihydro-9-methyl-N-methyl-8-oxo-2-phenyl-N-phenyl-7H-purin-7-acetamide], for which the melting point – broadly, the temperature of the solid-liquid transition – was 147 to 148 °C. Moreover, the pIC50 (commonly the negative decadic logarithm of the IC50, by convention in mol/L) in data set [1] is 8.92. The minimal effective dose in data set [2] was in the range of 1 to 3 µg/kg.

On to `CN(C(=O)Cn1c(=O)n(C)c2nc(-c3ccc(F)cc3)ncc21)c1ccccc1` [Example 5, 8,9-dihydro-2-(4-fluorophenyl)-9-methyl-N-methyl-8-oxo-N-phenyl-7H-purin-7-acetamide], for which the melting point lay in the range of 169 to 170 °C. The pIC50 in data set [1] was 8.89. Besides, the minimal effective dose in data set [2] was in the range of 1 to 3 µg/kg.

The compound `CCN(C(=O)Cn1c(=O)n(C)c2nc(-c3cccs3)ncc21)c1ccccc1` [Example 39] registered a melting point of 236 to 238 °C. Further, the pIC50 in data set [1] was 8.89.

`CCN(C(=O)Cn1c(=O)n(C)c2nc(-c3ccsc3)ncc21)c1ccccc1` [Example 40] had a melting point of 226 to 228 °C. For the same compound, the pIC50 in data set [1] is 8.80.

Turning to `CN(Cc1ccccc1)C(=O)Cn1c(=O)n(C)c2nc(-c3ccc(Cl)cc3)ncc21` [Example 49], the melting point lay in the range of 210 to 211 °C. In data set [1], the pIC50 was 8.85.

For the compound `COc1ccc(-c2ncc3c(n2)n(C)c(=O)n3CC(=O)N(C)Cc2ccccc2)cc1` [Example 51], the melting point fell in the range of 205 to 206 °C. The pIC50 in data set [1] was 8.92.

As to `CCN(Cc1ccccc1)C(=O)Cn1c(=O)n(C)c2nc(-c3ccccc3)ncc21` [Example 54], the melting point was 112 to 115 °C. Also, in data set [1], the pIC50 is 9.08.

In turn, `CCN(Cc1ccccc1)C(=O)Cn1c(=O)n(C)c2nc(-c3ccc(F)cc3)ncc21` [Example 56] returned a melting point of 155 to 157 °C. Moreover, in data set [1], the pIC50 is 8.85.

`CN(Cc1ccccc1F)C(=O)Cn1c(=O)n(C)c2nc(-c3ccccc3)ncc21` [Example 71] had a melting point of 198 to 199 °C. The pIC50 in data set [1] was 9.37.

As to `COc1ccc(CN(C)C(=O)Cn2c(=O)n(C)c3nc(-c4ccccc4)ncc32)cc1` [Example 73], the melting point was in the range of 174 to 176 °C. In addition, the pIC50 in data set [1] is 8.77.

Consider `CCN(Cc1ccc(F)cc1)C(=O)Cn1c(=O)n(C)c2nc(-c3ccccc3)ncc21` [Example 74], for which the melting point is 166 to 167 °C. For the same compound, the pIC50 in data set [1] is 9.00.

In turn, `CCN(Cc1cccc(F)c1)C(=O)Cn1c(=O)n(C)c2nc(-c3ccccc3)ncc21` [Example 75] registered a melting point of 144 to 145 °C. Further, the pIC50 in data set [1] was 8.89.

`CCCN(CCC)C(=O)Cn1c(=O)[nH]c2cnc(-c3ccc(F)cc3)nc21` [Example 81]: the melting point lay in the range of 213 to 215 °C. Besides, the pIC50 in data set [1] is 8.30.

In turn, `CCCN(CCC)C(=O)Cn1c(=O)[nH]c2cnc(-c3ccc([N+](=O)[O-])cc3)nc21` [Example 83] came in with a melting point of 256 to 258 °C. Besides, the pIC50 in data set [1] was 8.89.

Compound `CCN(Cc1ccccc1)C(=O)Cn1c(=O)[nH]c2cnc(-c3ccc(OC)cc3)nc21` [Example 94] had a melting point of 216 to 218 °C. Further, the pIC50 in data set [1] is 8.57.

Compound `CN(C(=O)Cn1c(=O)[nH]c2cnc(-c3ccccc3)nc21)c1cccc(Cl)c1` [Example 99] returned a melting point of 234 to 236 °C. The pIC50 in data set [1] was 8.85.

`COc1ccc(N(C)C(=O)Cn2c(=O)[nH]c3cnc(-c4ccccc4)nc32)cc1` [Example 101] had a melting point of 238 to 240 °C. For the same compound, the pIC50 in data set [1] was 8.89.

As for `CCN(C(=O)Cn1c(=O)[nH]c2cnc(-c3ccccc3)nc21)c1ccccc1` [Example 103], the melting point is 237 to 238 °C. Besides, in data set [1], the pIC50 was 9.10.

The compound `CCCN(CCC)C(=O)Cn1c(=O)n(C)c2cnc(-c3ccc(F)cc3)nc21` [Example 113] displayed a melting point of 140 to 141 °C. In addition, the pIC50 in data set [1] is 9.01.

`CCCN(CCC)C(=O)Cn1c(=O)n(C)c2cnc(-c3ccc(OC)cc3)nc21` [Example 114] displayed a melting point of 157 to 158 °C. Further, the pIC50 in data set [1] is 9.01.

As to `CN(Cc1ccccc1)C(=O)Cn1c(=O)n(C)c2cnc(-c3ccccc3)nc21` [Example 136, N-benzyl-7,8-dihydro-N-methyl-7-methyl-8-oxo-2-phenyl-9H-purin-9-acetamide], the melting point lay within 169 to 170 °C. For the same compound, the pIC50 in data set [1] was 9.18.

`CCn1c(=O)n(CC(=O)N(C)Cc2ccccc2)c2nc(-c3ccccc3)ncc21` [Example 140]: the melting point fell in the range of 147 to 149 °C. Besides, the pIC50 in data set [1] is 9.06.

As to `CCN(Cc1ccccc1)C(=O)Cn1c(=O)n(CC)c2cnc(-c3ccccc3)nc21` [Example 150], the melting point is 134 to 136 °C. The pIC50 in data set [1] is 9.09.

In the case of `CCN(Cc1ccccc1)C(=O)Cn1c(=O)n(CC)c2cnc(-c3ccc(Cl)cc3)nc21` [Example 151], the melting point lay within 157 to 158 °C. Besides, the negative logarithm of the IC50 (pIC50) in data set [1] is 8.64.

In turn, `CN(C(=O)Cn1c(=O)n(C)c2cnc(-c3ccccc3)nc21)c1ccccc1` [Example 156] displayed a melting point of 202 to 203 °C. In data set [1], the pIC50 was 9.17.

Compound `CCn1c(=O)n(CC(=O)N(C)c2cccc(Cl)c2)c2nc(-c3ccccc3)ncc21` [Example 161] registered a melting point of 205 to 207 °C. Also, the pIC50 in data set [1] was 8.96.

On to `CCn1c(=O)n(CC(=O)N(C)c2ccc(Cl)cc2)c2nc(-c3ccccc3)ncc21` [Example 162], for which the melting point lay in the range of 173 to 175 °C. Also, the pIC50 in data set [1] is 8.96.

Regarding `CCN(C(=O)Cn1c(=O)n(C)c2cnc(-c3ccccc3)nc21)c1ccccc1` [Example 166], the melting point lay within 180 to 181 °C. In data set [1], the pIC50 is 8.92.

On to `CCCN(C(=O)Cn1c(=O)n(CC)c2cnc(-c3ccccc3)nc21)c1ccccc1` [Example 170], for which the melting point lay within 151 to 152 °C. In addition, in data set [1], the pIC50 was 8.74.

The compound `CCn1c(=O)n(CC(=O)N(C)c2ccccc2)c2nc(-c3cccnc3)ncc21` [Example 172] returned a melting point of 199 to 200 °C. Moreover, the pIC50 in data set [1] was 8.46.
